Measurements from PMC10046369, “Low-Affinity/High-Selectivity Dopamine Transport Inhibition Sufficient to Rescue Cognitive Functions in the Aging Rat” (Biomolecules, 2023).

Tests used:
Test in all cases: biochemical
Set-up in all cases: KINOMEscan competition binding panel, per cent of control
Conditions in all cases: read-out: %Ctrl @ 2800nM
[1] = molecular target: T1, ABL1(Q252H)-phosphorylated (Homo sapiens, UniProt P00519, Q252H)
T1 construct: phosphorylated
Outline: (§1)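 Values are expressed as percent of control, calculated as ((test − positive control)/(negative control − positive control)) × 100, so lower numbers mean stronger hits. Binding was measured by KINOMEscan competition assay in a 450-kinase human panel including disease mutants, using the contractor's validated protocol.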

[2] = molecular target: T2, ABL1(T315I)-phosphorylated (Homo sapiens, UniProt P00519, T315I)
T2 construct: phosphorylated
Outline: as §1

[3] = molecular target: T3, ABL1(Y253F)-phosphorylated (Homo sapiens, UniProt P00519, Y253F)
T3 construct: phosphorylated
Outline: as §1

[4] = molecular target: T4, CAMK1B (Homo sapiens, UniProt Q6P2M8)
T4 construct: gene PNCK
Outline: as §1

[5] = molecular target: CAMK1G (Homo sapiens, UniProt Q96NX5)
Outline: as §1

[6] = molecular target: CDKL3 (Homo sapiens, UniProt Q8IVW4)
Outline: as §1

[7] = molecular target: CIT (Homo sapiens, UniProt O14578)
Outline: as §1

[8] = molecular target: CSF1R-autoinhibited (Homo sapiens, UniProt P07333)
Outline: as §1

[9] = molecular target: DDR1 (Homo sapiens, UniProt Q08345)
Outline: as §1

[10] = molecular target: EGFR(G719S) (Homo sapiens, UniProt P00533, G719S)
Outline: as §1

[11] = molecular target: ERBB4 (Homo sapiens, UniProt Q15303)
Outline: as §1

[12] = molecular target: T5, JNK2 (Homo sapiens, UniProt P45984)
T5 construct: gene MAPK9
Outline: as §1

[13] = molecular target: LCK (Homo sapiens, UniProt P06239)
Outline: as §1

[14] = molecular target: MST1R (Homo sapiens, UniProt Q04912)
Outline: as §1

[15] = molecular target: NEK10 (Homo sapiens, UniProt Q6ZWH5)
Outline: as §1

[16] = molecular target: NEK3 (Homo sapiens, UniProt P51956)
Outline: as §1

[17] = molecular target: NEK7 (Homo sapiens, UniProt Q8TDX7)
Outline: as §1

[18] = molecular target: T6, OSR1 (Homo sapiens, UniProt O95747)
T6 construct: gene OXSR1
Outline: as §1

[19] = molecular target: T7, PCTK3 (Homo sapiens, UniProt Q07002)
T7 construct: gene CDK18
Outline: as §1

[20] = molecular target: T8, PIP5K2C (Homo sapiens, UniProt Q8TBX8)
T8 construct: gene PIP4K2C
Outline: as §1

[21] = molecular target: PLK2 (Homo sapiens, UniProt Q9NYY3)
Outline: as §1

[22] = molecular target: PRKCH (Homo sapiens, UniProt P24723)
Outline: as §1

[23] = molecular target: RIPK2 (Homo sapiens, UniProt O43353)
Outline: as §1

[24] = molecular target: T9, RPS6KA4(Kin.Dom.2-C-terminal) (Homo sapiens, UniProt O75676)
T9 construct: Kin.Dom.2-C-terminal
Outline: as §1

[25] = molecular target: T10, S6K1 (Homo sapiens, UniProt P23443)
T10 construct: gene RPS6KB1
Outline: as §1

[26] = molecular target: T11, p38-delta (Homo sapiens, UniProt O15264)
T11 construct: gene MAPK13
Outline: as §1

T4 sequence (Q6P2M8 whole entry): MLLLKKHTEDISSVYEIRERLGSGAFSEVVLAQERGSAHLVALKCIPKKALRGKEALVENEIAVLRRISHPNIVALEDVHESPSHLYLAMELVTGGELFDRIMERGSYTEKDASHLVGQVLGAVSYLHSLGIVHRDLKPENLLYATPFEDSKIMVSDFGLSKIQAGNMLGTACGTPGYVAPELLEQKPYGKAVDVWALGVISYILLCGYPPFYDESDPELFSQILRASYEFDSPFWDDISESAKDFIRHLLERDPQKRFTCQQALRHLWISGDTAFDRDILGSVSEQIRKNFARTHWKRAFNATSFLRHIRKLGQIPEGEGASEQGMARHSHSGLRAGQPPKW
Sequence of CSF1R-autoinhibited (P07333 whole entry): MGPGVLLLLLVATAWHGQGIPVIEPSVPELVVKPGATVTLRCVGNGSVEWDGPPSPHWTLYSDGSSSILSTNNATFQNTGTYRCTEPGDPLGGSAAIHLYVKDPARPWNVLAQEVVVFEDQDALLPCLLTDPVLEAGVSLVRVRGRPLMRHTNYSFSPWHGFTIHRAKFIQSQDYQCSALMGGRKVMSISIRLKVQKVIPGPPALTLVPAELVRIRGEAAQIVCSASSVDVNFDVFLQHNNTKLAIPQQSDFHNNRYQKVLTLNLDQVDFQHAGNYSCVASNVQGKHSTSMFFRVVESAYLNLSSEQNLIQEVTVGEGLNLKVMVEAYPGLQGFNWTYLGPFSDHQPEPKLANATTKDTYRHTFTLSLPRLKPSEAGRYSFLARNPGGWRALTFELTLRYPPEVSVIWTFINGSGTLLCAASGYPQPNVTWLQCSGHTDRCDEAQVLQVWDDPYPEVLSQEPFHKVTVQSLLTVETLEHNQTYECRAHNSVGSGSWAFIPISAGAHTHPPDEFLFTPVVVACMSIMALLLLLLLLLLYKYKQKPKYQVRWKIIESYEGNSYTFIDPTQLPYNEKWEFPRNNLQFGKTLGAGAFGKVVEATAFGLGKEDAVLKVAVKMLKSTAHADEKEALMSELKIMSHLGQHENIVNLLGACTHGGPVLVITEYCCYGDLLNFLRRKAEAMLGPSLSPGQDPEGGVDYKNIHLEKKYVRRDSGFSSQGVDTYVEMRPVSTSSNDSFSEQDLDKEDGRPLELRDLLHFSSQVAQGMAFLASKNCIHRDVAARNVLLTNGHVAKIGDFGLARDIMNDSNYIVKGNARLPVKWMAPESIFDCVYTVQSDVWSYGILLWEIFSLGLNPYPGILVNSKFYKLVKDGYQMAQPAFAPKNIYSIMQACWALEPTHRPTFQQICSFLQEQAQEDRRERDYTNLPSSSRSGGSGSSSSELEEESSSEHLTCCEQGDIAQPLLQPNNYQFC
Sequence of CDKL3 (Q8IVW4 whole entry): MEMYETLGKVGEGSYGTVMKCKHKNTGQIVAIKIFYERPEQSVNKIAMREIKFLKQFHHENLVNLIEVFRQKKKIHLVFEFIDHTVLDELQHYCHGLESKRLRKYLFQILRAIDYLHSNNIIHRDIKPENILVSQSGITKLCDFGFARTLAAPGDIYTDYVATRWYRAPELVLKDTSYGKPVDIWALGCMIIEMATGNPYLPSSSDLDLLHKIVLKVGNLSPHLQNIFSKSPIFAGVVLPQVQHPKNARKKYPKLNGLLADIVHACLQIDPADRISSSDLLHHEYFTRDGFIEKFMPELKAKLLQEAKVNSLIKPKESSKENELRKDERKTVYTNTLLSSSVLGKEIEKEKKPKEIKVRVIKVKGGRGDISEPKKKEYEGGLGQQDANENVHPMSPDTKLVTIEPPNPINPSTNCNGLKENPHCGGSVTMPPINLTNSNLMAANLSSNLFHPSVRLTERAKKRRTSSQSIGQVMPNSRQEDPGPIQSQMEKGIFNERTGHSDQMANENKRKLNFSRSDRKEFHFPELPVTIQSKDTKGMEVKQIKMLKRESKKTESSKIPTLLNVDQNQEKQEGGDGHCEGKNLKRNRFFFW
Sequence of PLK2 (Q9NYY3 whole entry): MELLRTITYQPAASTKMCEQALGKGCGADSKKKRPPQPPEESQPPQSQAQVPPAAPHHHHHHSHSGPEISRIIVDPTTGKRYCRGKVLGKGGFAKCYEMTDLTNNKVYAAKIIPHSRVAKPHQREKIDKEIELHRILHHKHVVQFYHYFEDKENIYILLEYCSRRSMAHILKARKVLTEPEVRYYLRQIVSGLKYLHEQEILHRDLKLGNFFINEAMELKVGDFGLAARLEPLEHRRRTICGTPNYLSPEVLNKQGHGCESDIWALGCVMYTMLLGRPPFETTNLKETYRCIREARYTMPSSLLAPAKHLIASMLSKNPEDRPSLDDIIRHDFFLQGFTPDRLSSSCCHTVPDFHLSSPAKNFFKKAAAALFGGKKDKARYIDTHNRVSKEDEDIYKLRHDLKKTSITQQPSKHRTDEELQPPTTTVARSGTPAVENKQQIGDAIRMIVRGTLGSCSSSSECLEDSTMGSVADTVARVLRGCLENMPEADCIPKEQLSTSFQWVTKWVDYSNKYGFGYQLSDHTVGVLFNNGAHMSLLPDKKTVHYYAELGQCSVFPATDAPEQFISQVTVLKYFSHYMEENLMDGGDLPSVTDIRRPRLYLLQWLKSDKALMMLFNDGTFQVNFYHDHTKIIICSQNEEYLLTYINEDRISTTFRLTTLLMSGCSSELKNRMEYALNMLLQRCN
Sequence of LCK (P06239 whole entry): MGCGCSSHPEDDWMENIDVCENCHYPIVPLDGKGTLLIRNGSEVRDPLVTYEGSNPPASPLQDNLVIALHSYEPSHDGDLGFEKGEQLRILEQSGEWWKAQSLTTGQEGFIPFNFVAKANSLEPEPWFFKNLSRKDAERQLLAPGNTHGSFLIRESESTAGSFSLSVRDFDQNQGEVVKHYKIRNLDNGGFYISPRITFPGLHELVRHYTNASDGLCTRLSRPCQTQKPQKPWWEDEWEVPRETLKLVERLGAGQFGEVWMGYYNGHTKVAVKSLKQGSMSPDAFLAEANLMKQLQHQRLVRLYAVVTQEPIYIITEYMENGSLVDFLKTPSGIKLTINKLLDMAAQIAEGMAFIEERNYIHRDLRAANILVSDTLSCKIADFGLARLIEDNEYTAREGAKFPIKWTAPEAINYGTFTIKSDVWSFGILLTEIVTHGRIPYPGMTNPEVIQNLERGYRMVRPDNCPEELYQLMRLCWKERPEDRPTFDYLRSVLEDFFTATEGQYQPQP
T10 sequence (P23443 whole entry): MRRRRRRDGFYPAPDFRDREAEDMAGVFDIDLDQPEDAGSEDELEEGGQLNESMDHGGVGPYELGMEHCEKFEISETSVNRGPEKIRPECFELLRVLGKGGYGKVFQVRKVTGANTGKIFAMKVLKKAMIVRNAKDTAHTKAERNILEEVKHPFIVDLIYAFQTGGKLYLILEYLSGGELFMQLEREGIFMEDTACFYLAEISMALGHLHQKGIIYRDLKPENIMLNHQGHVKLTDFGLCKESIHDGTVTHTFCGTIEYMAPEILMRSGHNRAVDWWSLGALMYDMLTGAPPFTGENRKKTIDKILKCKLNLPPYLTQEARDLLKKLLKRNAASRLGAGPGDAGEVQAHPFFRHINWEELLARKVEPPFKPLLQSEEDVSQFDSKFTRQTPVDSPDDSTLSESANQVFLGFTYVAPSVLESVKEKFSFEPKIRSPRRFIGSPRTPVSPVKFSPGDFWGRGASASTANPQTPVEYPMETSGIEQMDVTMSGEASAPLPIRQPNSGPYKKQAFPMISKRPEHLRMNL
Sequence of CAMK1G (Q96NX5 whole entry): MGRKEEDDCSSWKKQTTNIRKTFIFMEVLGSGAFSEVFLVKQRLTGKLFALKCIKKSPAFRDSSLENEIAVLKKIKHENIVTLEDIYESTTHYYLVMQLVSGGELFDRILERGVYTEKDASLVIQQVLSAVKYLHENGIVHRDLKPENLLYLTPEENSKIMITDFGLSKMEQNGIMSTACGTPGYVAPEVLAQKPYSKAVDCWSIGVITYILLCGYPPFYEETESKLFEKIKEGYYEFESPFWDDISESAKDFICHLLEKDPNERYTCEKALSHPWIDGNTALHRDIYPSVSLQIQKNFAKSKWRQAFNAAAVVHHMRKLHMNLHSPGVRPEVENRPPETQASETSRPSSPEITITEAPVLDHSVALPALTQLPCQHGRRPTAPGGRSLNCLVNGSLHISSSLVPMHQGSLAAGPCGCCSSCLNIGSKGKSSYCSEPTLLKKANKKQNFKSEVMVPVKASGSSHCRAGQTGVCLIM
T11 sequence (O15264 whole entry): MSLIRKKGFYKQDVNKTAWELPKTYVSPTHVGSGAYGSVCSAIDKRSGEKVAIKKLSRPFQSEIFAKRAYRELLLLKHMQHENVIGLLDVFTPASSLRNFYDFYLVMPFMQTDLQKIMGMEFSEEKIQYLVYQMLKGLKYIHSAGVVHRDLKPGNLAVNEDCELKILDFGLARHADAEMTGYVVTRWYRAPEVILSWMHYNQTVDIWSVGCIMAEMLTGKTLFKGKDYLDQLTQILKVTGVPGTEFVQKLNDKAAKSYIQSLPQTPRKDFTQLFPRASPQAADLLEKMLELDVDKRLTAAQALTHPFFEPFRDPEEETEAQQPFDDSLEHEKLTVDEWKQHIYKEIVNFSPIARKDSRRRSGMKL
Sequence of NEK7 (Q8TDX7 whole entry): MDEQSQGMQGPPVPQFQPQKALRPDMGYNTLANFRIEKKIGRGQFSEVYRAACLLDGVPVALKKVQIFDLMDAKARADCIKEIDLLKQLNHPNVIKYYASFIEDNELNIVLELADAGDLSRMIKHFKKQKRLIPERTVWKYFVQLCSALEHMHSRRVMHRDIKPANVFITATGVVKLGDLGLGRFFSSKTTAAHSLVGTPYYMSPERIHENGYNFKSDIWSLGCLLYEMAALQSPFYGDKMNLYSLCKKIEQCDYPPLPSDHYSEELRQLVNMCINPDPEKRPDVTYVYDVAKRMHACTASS

Q: For [O-][S@@+](Cc1cncs1)C(c1ccccc1)c1ccccc1 [S-CE-123, (S)-5-((Benzhydrylsulfinyl)Methyl)Thiazole], which remaining binding at 2.8 µM [1] is on record?
A: 84%

Q: And the remaining binding at 2.8 µM [2]?
A: 98%

Q: What about the remaining binding at 2.8 µM [3] of the same compound?
A: 93%

Q: And the remaining binding at 2.8 µM [4]?
A: 100%

Q: And the remaining binding at 2.8 µM [5]?
A: 82%

Q: What about the remaining binding at 2.8 µM [6] of the same compound?
A: 81%

Q: And the remaining binding at 2.8 µM [7]?
A: 74%

Q: What about the remaining binding at 2.8 µM [8] of the same compound?
A: 100%

Q: What about the remaining binding at 2.8 µM [9] of the same compound?
A: 100%

Q: And the remaining binding at 2.8 µM [10]?
A: 77%

Q: What about the remaining binding at 2.8 µM [11] of the same compound?
A: 96%

Q: What about the remaining binding at 2.8 µM [12] of the same compound?
A: 90%

Q: And the remaining binding at 2.8 µM [13]?
A: 100%

Q: And the remaining binding at 2.8 µM [14]?
A: 93%

Q: What about the remaining binding at 2.8 µM [15] of the same compound?
A: 100%

Q: What about the remaining binding at 2.8 µM [16] of the same compound?
A: 100%

Q: What about the remaining binding at 2.8 µM [17] of the same compound?
A: 100%

Q: And the remaining binding at 2.8 µM [18]?
A: 90%

Q: And the remaining binding at 2.8 µM [19]?
A: 99%

Q: What about the remaining binding at 2.8 µM [20] of the same compound?
A: 100%

Q: And the remaining binding at 2.8 µM [21]?
A: 89%

Q: And the remaining binding at 2.8 µM [22]?
A: 100%

Q: And the remaining binding at 2.8 µM [23]?
A: 100%

Q: What about the remaining binding at 2.8 µM [24] of the same compound?
A: 99%

Q: And the remaining binding at 2.8 µM [25]?
A: 90%

Q: And the remaining binding at 2.8 µM [26]?
A: 95%
